Assays:
opiate receptor [1] = assay: Brain enzymatic inactivation as assessed by opiate receptor binding inhibition
Method: Male rats weighing 180-220 g (Sprangue-Dawley) were decapitated and each brain with the cerebellum removed was homogenized in 150 ml of ice-cold standard buffer (0.05 M Tris-HCl, ph 7.4 at 37°). After centrifugation at 4° at 12,000 × g, the membranes were reconstituted in standard buffer. After recentrifugation, each brain was suspended in 10 ml of the standard buffer.
Aliquots of the freshly prepared membrane preparation (100 μl) were incubated for 1 hr at 0° with 100 mM NaCl in a final volume of 0.5 ml with ^3 H!naloxone (Amersham-Searle, 34 Ci/mmol) in a concentration of 1.3 nM (20,000 cpm). After rapid filtration and washing with two 7-ml portions of ice-cold standard buffer, membrane-laden filters were transferred and counted at 40-45% efficiency at least 6 hours after shaking with detergent scintillation fluor (Aquasol, New England Nuclear).
The ability of the blood inhibitory factor eluted from the thin-layer plate to be degraded by enzymes present in brain was examined by incubating the blood substance with membranes or supernatant fluid from rat brain, terminating the enzyme action by boiling, and subsequently adding the product to the opiate receptor assay (see Table 1).
Rat brains were homogenized in 100 volumes (wt/vol) of standard buffer an
the particulate fraction and supernatant fluid were obtained by
centrifugation for 10 min. at 40,000 × g. After incubation under th
specified conditions in a total volume of 1 ml with met-enkephalin or
the supernatant fluid were assessed for inhibition in the standard opiate

opiate receptor [2] = assay: Opiate receptor assay ([3H]naloxone binding, rapid filtration, rat brain membranes); conditions: 100 nM
[3] = Chang et al., cited from earlier work
rat = assay: Assessment of analgesia: rat tail-flick test after micro-injection into periaqueductal gray matter; type: in vivo
Method: Eight rats were stereotaxically implanted with chronic indwelling cannulae guides constructed from 23 gauge TW stainless steel tubing. […] Testing was initiated approximately 1 week following surgery. The antinociceptive actions of morphine and anodynin were assessed using a modification of the D'Armour and Smith paradigm in which the latency for a rat to remove its tail from under a radiant heat source is measured in seconds. Baseline "tail-flick" latencies were always determined approximately 30 minutes prior to a drug or control injection by four trials separated by 10 sec.
The solutions were injected into the central gray matter with 30 guage injectors which extended 2 mm past the tip of the guide cannula. The injection rate was 15 μl/min. Testing for antinociception was initiated immediately after an injection. Animals were tested at 1-min. intervals for 5 min. and then at 10, 15, 30, and 60 min. At the end of the study, all animals were sacrificed and their brains were prepared following standard histological procedures to localize cannulae placements.

For `CSCC[C@H](NC(=O)[C@H](Cc1ccccc1)NC(=O)CNC(=O)CNC(=O)[C@@H](N)Cc1ccc(O)cc1)C(=O)O` [Net-Enkephalin, H-Tyr-Gly-Gly-Phe-Met-OH], the “% Inhibition Stereospecific Binding” value (opiate receptor [1]; pre-incubation: Buffer, 1 hr, 37°) was 65%, the “% Inhibition Stereospecific Binding” value (opiate receptor [1]; pre-incubation: rat brain particulate fraction, 0.25 hr, 37°) was 39% and the “% Inhibition Stereospecific Binding” value (opiate receptor [1]; pre-incubation: rat brain particulate fraction, 1 hr, 0°) was 65%. For the same compound, the “% Inhibition Stereospecific Binding” value (opiate receptor [1]; pre-incubation: rat brain particulate fraction, 1 hr, 37°) was 2% and the “% Inhibition Stereospecific Binding” value (opiate receptor [1]; pre-incubation: rat brain supernatant fluid, 1 hr, 37°) was 1%.

In the case of `C=CCN1CC[C@@]23CCCC[C@@H]2[C@@H]1Cc1ccc(O)cc13` [dextrallorphan], the “effect on 3H-naloxone binding (control incubation)” value (opiate receptor [2]) is reported as “did not significantly reduce binding”.

In the case of `CC(C)C[C@H](NC(=O)[C@H](Cc1ccccc1)NC(=O)CNC(=O)CNC(=O)[C@@H](N)Cc1ccc(O)cc1)C(=O)O` [enkephalin], the “destruction in the brain” value [3] is listed as “rapidly destroyed”, the “time after micro-injection at which analgesia disappears completely” value [3] is listed as 1 to 2 min and the “dose required to elicit analgesia relative to morphine” value ([3]; micro-injection) is listed as “at least 40 times”. The “Loss of opiate receptor inhibitory activity by brain enzymes” value (opiate receptor [1]; incubation with membranes or supernatant fluid from rat brain) was “completely and rapidly reversed”.

For `CN1CC[C@]23c4c5ccc(O)c4O[C@H]2[C@@H](O)C=C[C@H]3[C@H]1C5` [morphine], the “antinociceptive action after pretreatment with naloxone” value (rat; 20 mg/kg naloxone intraperitoneally, 15 min prior) was “blocked” and the “behavioral effect (immobility)” value (rat; central gray micro-injection in rats) was “stuperous immobility”.

Reference: patent publication US4073885A (The United States of America as represented by the …, priority 1976, dated 1978)
